According to PubChem BioAssay AID256 (DTP/NCI, 2004):
Values joined by “and” are separate entries in the source; they are usually repeats but may differ in a detail not shown here. Equal entries are not always repeated. Inconclusive results and toxic doses are left out.

System: CD2F1 mice, L1210 leukemia ip, survival T/C
Test: NCI In Vivo Anticancer Drug Screen. Data for tumor model L1210 Leukemia (intraperitoneal) in CD2F1 (CDF1) mice
Settings: higher = longer survival
In short: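 Read-out first: treated-group measurement over vehicle-control measurement, expressed as a ratio. Animals bore a transplanted tumor line and were dosed with compound or vehicle.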

[1] = endpoint: mean survival time, dose: 100.0 mg/kg/injection, schedule: Q01DX001 (ip), vehicle: saline with Tween-80
[2] = endpoint: mean survival time, dose: 200.0 mg/kg/injection, schedule: Q01DX001 (ip), vehicle: saline with Tween-80
[3] = endpoint: mean survival time, dose: 400.0 mg/kg/injection, schedule: Q01DX001 (ip), vehicle: saline with Tween-80
[4] = endpoint: mean survival time, dose: 100.0 mg/kg/injection, schedule: Q04DX002 (ip), vehicle: saline with Tween-80
[5] = endpoint: mean survival time, dose: 200.0 mg/kg/injection, schedule: Q04DX002 (ip), vehicle: saline with Tween-80

CC1(C)OC2C3COP(=O)(N(CCCl)CCCl)NC(O3)C2O1 (configuration not stated)
T/C (endpoint: mean survival time, dose: 3.9 mg/kg/injection, schedule: Q01DX001 (ip), vehicle: distilled water + Tween-80): 98 % of control | T/C (endpoint: mean survival time, dose: 3.9 mg/kg/injection, schedule: Q01DX001 (ip), vehicle: distilled water + alcohol): 103 % of control | T/C (endpoint: mean survival time, dose: 7.8 mg/kg/injection, schedule: Q01DX001 (ip), vehicle: distilled water + Tween-80): 98 % of control | T/C (endpoint: mean survival time, dose: 7.8 mg/kg/injection, schedule: Q01DX001 (ip), vehicle: distilled water + alcohol): 108 % of control | T/C (endpoint: mean survival time, dose: 15.6 mg/kg/injection, schedule: Q01DX001 (ip), vehicle: distilled water + alcohol): 98 % of control | T/C (endpoint: mean survival time, dose: 31.2 mg/kg/injection, schedule: Q01DX001 (ip), vehicle: distilled water + Tween-80): 98 % of control | T/C (endpoint: mean survival time, dose: 31.2 mg/kg/injection, schedule: Q01DX001 (ip), vehicle: distilled water + alcohol): 103 % of control | T/C (endpoint: mean survival time, dose: 31.3 mg/kg/injection, schedule: Q01DX001 (ip), vehicle: distilled water + Tween-80): 98 % of control | T/C (endpoint: mean survival time, dose: 62.5 mg/kg/injection, schedule: Q01DX001 (ip), vehicle: distilled water + Tween-80): 98 % of control | T/C (endpoint: mean survival time, dose: 125.0 mg/kg/injection, schedule: Q01DX001 (ip), vehicle: distilled water + Tween-80): 96 % of control | T/C (endpoint: mean survival time, dose: 250.0 mg/kg/injection, schedule: Q01DX001 (ip), vehicle: distilled water + Tween-80): 96 % of control | T/C (endpoint: mean survival time, dose: 500.0 mg/kg/injection, schedule: Q01DX001 (ip), vehicle: distilled water + Tween-80): 97 % of control

N#CSCc1ccc(Cl)c(CSC#N)c1
T/C (endpoint: mean survival time, dose: 18.8 mg/kg/injection, schedule: Q01DX009 (ip), vehicle: saline): 108 % of control | T/C (endpoint: mean survival time, dose: 18.8 mg/kg/injection, schedule: Q04DX003 (ip), vehicle: saline): 103 % of control | T/C (endpoint: mean survival time, dose: 37.5 mg/kg/injection, schedule: Q01DX009 (ip), vehicle: saline): 108 % of control | T/C (endpoint: mean survival time, dose: 37.5 mg/kg/injection, schedule: Q04DX003 (ip), vehicle: saline): 105 % of control | T/C (endpoint: mean survival time, dose: 75.0 mg/kg/injection, schedule: Q01DX001 (ip), vehicle: saline): 96 % of control | T/C (endpoint: mean survival time, dose: 75.0 mg/kg/injection, schedule: Q01DX009 (ip), vehicle: saline): 108 % of control | T/C (endpoint: mean survival time, dose: 75.0 mg/kg/injection, schedule: Q04DX003 (ip), vehicle: saline): 109 % of control

C=CC1(O)CCCCC1
T/C [1]: 100 % of control | T/C [2]: 100 % of control | T/C [3]: 97 % of control

CCc1c(O)c2c(c(O)c1C(C)=O)C(=O)c1c(cc(O)c(C(=O)O)c1C(=O)O)C2=O
T/C (endpoint: mean survival time, dose: 50.0 mg/kg/injection, schedule: Q01DX009 (ip), vehicle: saline): 108 % of control | T/C (endpoint: mean survival time, dose: 100.0 mg/kg/injection, schedule: Q01DX009 (ip), vehicle: saline): 116 % of control

COc1ccc(/C=C(/C)C(=O)c2ccccc2)cc1
T/C (endpoint: mean survival time, dose: 100.0 mg/kg/injection, schedule: Q01DX009 (ip), vehicle: Klucel (hydroxypropylcellulose) (HPC)): 97 % of control | T/C (endpoint: mean survival time, dose: 200.0 mg/kg/injection, schedule: Q01DX009 (ip), vehicle: Klucel (hydroxypropylcellulose) (HPC)): 97 % of control | T/C (endpoint: mean survival time, dose: 400.0 mg/kg/injection, schedule: Q01DX009 (ip), vehicle: Klucel (hydroxypropylcellulose) (HPC)): 91 % of control

c1ccc2nc(C3CO3)cnc2c1 (configuration not stated)
T/C (endpoint: mean survival time, dose: 50.0 mg/kg/injection, schedule: Q04DX003 (ip), vehicle: saline with Tween-80): 100 % of control | T/C (endpoint: mean survival time, dose: 100.0 mg/kg/injection, schedule: Q04DX003 (ip), vehicle: saline with Tween-80): 96 % of control | T/C (endpoint: mean survival time, dose: 200.0 mg/kg/injection, schedule: Q04DX003 (ip), vehicle: saline with Tween-80): 97 % of control

O=S1(=O)c2ccccc2Oc2ccccc21
T/C (endpoint: mean survival time, dose: 100.0 mg/kg/injection, schedule: Q01DX009 (ip), vehicle: saline with Tween-80): 97 % of control | T/C (endpoint: mean survival time, dose: 200.0 mg/kg/injection, schedule: Q01DX009 (ip), vehicle: saline with Tween-80): 107 % of control | T/C (endpoint: mean survival time, dose: 400.0 mg/kg/injection, schedule: Q01DX009 (ip), vehicle: saline with Tween-80): 95 % of control

Nc1nc2c(ncn2-c2ccc3oc4ccccc4c3c2)c(=O)[nH]1
T/C [1]: 93 % of control and 108 % of control | T/C [4]: 101 % of control | T/C [2]: 89 % of control and 97 % of control | T/C [5]: 97 % of control | T/C [3]: 89 % of control and 101 % of control | T/C (endpoint: mean survival time, dose: 400.0 mg/kg/injection, schedule: Q04DX002 (ip), vehicle: saline with Tween-80): 108 % of control

O=CC(O)C(O)C(O)C(O)C(=O)O.O=CC(O)C(O)C(O)C(O)C(=O)O.[NH-]C1CCCCC1[NH-].[Pt+2] (configuration not stated)
T/C (endpoint: mean survival time, dose: 1.56 mg/kg/injection, schedule: Q04DX003 (ip), vehicle: saline): 118 % of control | T/C (endpoint: mean survival time, dose: 3.12 mg/kg/injection, schedule: Q04DX003 (ip), vehicle: saline): 114 % of control | T/C (endpoint: mean survival time, dose: 6.25 mg/kg/injection, schedule: Q04DX003 (ip), vehicle: saline): 191 % of control and 184 % of control | T/C (endpoint: mean survival time, dose: 12.5 mg/kg/injection, schedule: Q04DX003 (ip), vehicle: saline): 212 % of control and 168 % of control and 213 % of control | T/C (endpoint: mean survival time, dose: 25.0 mg/kg/injection, schedule: Q04DX003 (ip), vehicle: saline): 274 % of control [middle of 4 runs] | T/C (endpoint: mean survival time, dose: 50.0 mg/kg/injection, schedule: Q04DX003 (ip), vehicle: saline): 154 % of control and 216 % of control and 330 % of control | T/C (endpoint: median survival time, dose: 3.12 mg/kg/injection, schedule: Q04DX003 (ip), vehicle: saline): 104 % of control | T/C (endpoint: median survival time, dose: 6.25 mg/kg/injection, schedule: Q04DX003 (ip), vehicle: saline): 106 % of control | T/C (endpoint: median survival time, dose: 12.5 mg/kg/injection, schedule: Q04DX003 (ip), vehicle: saline): 106 % of control | T/C (endpoint: median survival time, dose: 25.0 mg/kg/injection, schedule: Q04DX003 (ip), vehicle: saline): 107 % of control | T/C (endpoint: median survival time, dose: 50.0 mg/kg/injection, schedule: Q04DX003 (ip), vehicle: saline): 111 % of control | T/C (endpoint: median survival time, dose: 100.0 mg/kg/injection, schedule: Q04DX003 (ip), vehicle: saline): 110 % of control | T/C (endpoint: median survival time, dose: 200.0 mg/kg/injection, schedule: Q04DX003 (ip), vehicle: saline): 116 % of control

CCCCOC(=O)c1ccccc1Cl
T/C (endpoint: mean survival time, dose: 50.0 mg/kg/injection, schedule: Q04DX003 (ip), vehicle: Klucel (hydroxypropylcellulose) (HPC)): 94 % of control | T/C (endpoint: mean survival time, dose: 100.0 mg/kg/injection, schedule: Q04DX003 (ip), vehicle: Klucel (hydroxypropylcellulose) (HPC)): 100 % of control | T/C (endpoint: mean survival time, dose: 200.0 mg/kg/injection, schedule: Q04DX003 (ip), vehicle: Klucel (hydroxypropylcellulose) (HPC)): 102 % of control

O=C(c1ccccc1)N(C(=O)c1ccccc1)c1cccc(N(C(=O)c2ccccc2)C(=O)c2ccccc2)n1
T/C (endpoint: mean survival time, dose: 50.0 mg/kg/injection, schedule: Q04DX002 (ip), vehicle: saline with Tween-80): 101 % of control | T/C [4]: 97 % of control | T/C [5]: 93 % of control

Cc1nc(=O)cnn1C1OC(CO)C(O)C1O (configuration not stated)
T/C (endpoint: mean survival time, dose: 12.5 mg/kg/injection, schedule: Q01DX005 (ip), vehicle: distilled water + Tween-80): 102 % of control | T/C (endpoint: mean survival time, dose: 25.0 mg/kg/injection, schedule: Q01DX005 (ip), vehicle: distilled water + Tween-80): 102 % of control | T/C (endpoint: mean survival time, dose: 50.0 mg/kg/injection, schedule: Q01DX005 (ip), vehicle: distilled water + Tween-80): 97 % of control | T/C (endpoint: mean survival time, dose: 100.0 mg/kg/injection, schedule: Q01DX005 (ip), vehicle: distilled water + Tween-80): 103 % of control | T/C (endpoint: mean survival time, dose: 200.0 mg/kg/injection, schedule: Q01DX005 (ip), vehicle: distilled water + Tween-80): 105 % of control

Nc1cc(Cl)c(I)cc1Cl
T/C (endpoint: mean survival time, dose: 100.0 mg/kg/injection, schedule: Q01DX001 (ip), vehicle: saline): 102 % of control | T/C (endpoint: mean survival time, dose: 200.0 mg/kg/injection, schedule: Q01DX001 (ip), vehicle: saline): 102 % of control | T/C (endpoint: mean survival time, dose: 400.0 mg/kg/injection, schedule: Q01DX001 (ip), vehicle: saline): 101 % of control

OCC1OC(Nc2ncnc3snnc23)C(O)C1O (configuration not stated)
T/C (endpoint: mean survival time, dose: 200.0 mg/kg/injection, schedule: Q04DX003 (ip), vehicle: saline): 157 % of control | T/C (endpoint: mean survival time, dose: 400.0 mg/kg/injection, schedule: Q04DX003 (ip), vehicle: saline): 173 % of control

COc1cc(C2CC(C)(O)Oc3cc4c(cc32)OCO4)cc(OC)c1OC (configuration not stated)
T/C (endpoint: median survival time, dose: 25.0 mg/kg/injection, schedule: Q01DX005 (ip), vehicle: saline with Tween-80): 106 % of control | T/C (endpoint: median survival time, dose: 50.0 mg/kg/injection, schedule: Q01DX005 (ip), vehicle: saline with Tween-80): 114 % of control | T/C (endpoint: median survival time, dose: 86.0 mg/kg/injection, schedule: Q01DX005 (ip), vehicle: saline with Tween-80): 119 % of control | T/C (endpoint: median survival time, dose: 100.0 mg/kg/injection, schedule: Q01DX005 (ip), vehicle: saline with Tween-80): 110 % of control | T/C (endpoint: median survival time, dose: 144.0 mg/kg/injection, schedule: Q01DX005 (ip), vehicle: saline with Tween-80): 160 % of control | T/C (endpoint: median survival time, dose: 200.0 mg/kg/injection, schedule: Q01DX005 (ip), vehicle: saline with Tween-80): 102 % of control | T/C (endpoint: median survival time, dose: 240.0 mg/kg/injection, schedule: Q01DX005 (ip), vehicle: saline with Tween-80): 102 % of control

COC(=O)c1ccc(N(C)C/C(CN2C(=O)c3ccccc3C2=O)=N\O)cc1
T/C (endpoint: mean survival time, dose: 75.0 mg/kg/injection, schedule: Q01DX001 (ip), vehicle: other): 92 % of control | T/C (endpoint: mean survival time, dose: 150.0 mg/kg/injection, schedule: Q01DX001 (ip), vehicle: other): 106 % of control
